Assays:
[1] = DRUGMATRIX: Glutamate, NMDA, Agonism radioligand binding (ligand: [3H] CGP-39653); type: cell membranes, Rattus norvegicus, Wistar, Cerebral cortex, Membrane; conditions: Not Active = under 50% inhibition at 10 µM
[2] = DRUGMATRIX: Glutamate, NMDA, Phencyclidine radioligand binding (ligand: [3H] TCP); type: cell membranes, Rattus norvegicus, Wistar, Cerebral cortex, Membrane; conditions: Not Active = under 50% inhibition at 10 µM
[3] = DRUGMATRIX: beta-Lactamase enzyme inhibition (substrate: Nitrocefin); set-up: species or system Bacillus cereus; conditions: Not Active = under 50% inhibition at 10 µM
[4] = DRUGMATRIX: Purinergic P2X radioligand binding (ligand: [3H] alpha, beta-Methylene-ATP); type: cell membranes, Oryctolagus cuniculus, New Zealand albino, Urinary bladder, Membrane; conditions: Not Active = under 50% inhibition at 10 µM
[5] = target: Voltage-gated inwardly rectifying potassium channel KCNH2 (Homo sapiens, UniProt Q12809); conditions: hek293; further: in other assays of this panel Not Active means under 50% inhibition at 10 µM
Chain of Voltage-gated inwardly rectifying potassium channel KCNH2 (Q12809 whole entry): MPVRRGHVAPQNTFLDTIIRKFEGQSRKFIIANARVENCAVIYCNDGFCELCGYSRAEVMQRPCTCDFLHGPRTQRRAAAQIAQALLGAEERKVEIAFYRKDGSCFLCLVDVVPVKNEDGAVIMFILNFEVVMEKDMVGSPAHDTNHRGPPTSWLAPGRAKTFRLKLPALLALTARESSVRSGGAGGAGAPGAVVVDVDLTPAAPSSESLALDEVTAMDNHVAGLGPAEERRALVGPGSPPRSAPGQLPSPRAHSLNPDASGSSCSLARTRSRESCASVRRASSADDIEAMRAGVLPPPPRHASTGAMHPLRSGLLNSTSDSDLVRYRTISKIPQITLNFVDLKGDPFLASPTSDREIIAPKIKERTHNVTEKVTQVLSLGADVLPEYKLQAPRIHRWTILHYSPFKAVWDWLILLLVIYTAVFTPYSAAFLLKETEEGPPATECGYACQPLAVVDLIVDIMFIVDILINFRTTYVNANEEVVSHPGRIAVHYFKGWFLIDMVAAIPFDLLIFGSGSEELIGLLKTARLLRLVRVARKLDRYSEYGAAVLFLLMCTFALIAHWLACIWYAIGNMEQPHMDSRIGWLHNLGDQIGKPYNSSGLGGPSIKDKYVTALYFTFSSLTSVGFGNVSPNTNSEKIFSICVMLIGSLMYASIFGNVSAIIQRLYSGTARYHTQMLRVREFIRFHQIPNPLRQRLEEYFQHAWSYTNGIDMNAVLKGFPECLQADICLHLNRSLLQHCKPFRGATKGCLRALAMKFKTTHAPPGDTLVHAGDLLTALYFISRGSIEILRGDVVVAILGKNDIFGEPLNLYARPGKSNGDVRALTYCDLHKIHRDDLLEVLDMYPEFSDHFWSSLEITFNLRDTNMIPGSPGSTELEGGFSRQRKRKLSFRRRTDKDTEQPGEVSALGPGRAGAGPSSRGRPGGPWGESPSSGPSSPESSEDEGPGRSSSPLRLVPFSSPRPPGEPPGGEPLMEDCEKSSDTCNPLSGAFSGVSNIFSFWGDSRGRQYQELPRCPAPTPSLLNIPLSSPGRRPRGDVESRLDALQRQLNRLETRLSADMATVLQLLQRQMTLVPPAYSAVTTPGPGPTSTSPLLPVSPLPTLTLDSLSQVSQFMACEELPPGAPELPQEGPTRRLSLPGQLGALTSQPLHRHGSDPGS

[6] = DRUGMATRIX: Interleukin IL-1 radioligand binding (ligand: [125I] interleukin 1beta); type: cell membranes, Membrane; conditions: nih3t3; Not Active = under 50% inhibition at 10 µM
[7] = target: T1, Alpha-1A adrenergic receptor (Rattus norvegicus, UniProt P43140); assay: DRUGMATRIX: Alpha-1A adrenergic receptor radioligand binding (ligand: prazosin); type: cell membranes, Wistar, Submaxillary gland, Membrane; conditions: Not Active = under 50% inhibition at 10 µM
T1 sequence (P43140 whole entry): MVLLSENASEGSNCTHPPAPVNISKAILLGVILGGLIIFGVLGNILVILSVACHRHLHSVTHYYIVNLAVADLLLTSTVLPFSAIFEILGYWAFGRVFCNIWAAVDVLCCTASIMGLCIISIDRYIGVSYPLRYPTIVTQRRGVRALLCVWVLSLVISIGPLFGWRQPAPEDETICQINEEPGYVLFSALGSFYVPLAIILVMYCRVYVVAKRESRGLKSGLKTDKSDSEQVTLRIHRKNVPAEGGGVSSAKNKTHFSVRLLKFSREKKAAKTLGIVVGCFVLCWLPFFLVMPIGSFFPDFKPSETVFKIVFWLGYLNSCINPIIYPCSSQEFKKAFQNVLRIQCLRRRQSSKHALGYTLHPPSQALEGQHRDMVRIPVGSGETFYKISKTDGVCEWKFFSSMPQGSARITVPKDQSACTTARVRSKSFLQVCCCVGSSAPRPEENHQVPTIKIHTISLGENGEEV

[8] = DRUGMATRIX: Potassium Channel [KATP] radioligand binding (ligand: [3H] Glyburide); type: cell membranes, Membrane; conditions: hit-t15; Not Active = under 50% inhibition at 10 µM
[9] = target: Sodium-dependent dopamine transporter (Homo sapiens, UniProt Q01959); assay: DRUGMATRIX: Dopamine Transporter radioligand binding (ligand: [125I] RTI-55); type: cell membranes, CHO-K1, Membrane; conditions: cho-k1; Not Active = under 50% inhibition at 10 µM
Chain of Sodium-dependent dopamine transporter (Q01959 whole entry): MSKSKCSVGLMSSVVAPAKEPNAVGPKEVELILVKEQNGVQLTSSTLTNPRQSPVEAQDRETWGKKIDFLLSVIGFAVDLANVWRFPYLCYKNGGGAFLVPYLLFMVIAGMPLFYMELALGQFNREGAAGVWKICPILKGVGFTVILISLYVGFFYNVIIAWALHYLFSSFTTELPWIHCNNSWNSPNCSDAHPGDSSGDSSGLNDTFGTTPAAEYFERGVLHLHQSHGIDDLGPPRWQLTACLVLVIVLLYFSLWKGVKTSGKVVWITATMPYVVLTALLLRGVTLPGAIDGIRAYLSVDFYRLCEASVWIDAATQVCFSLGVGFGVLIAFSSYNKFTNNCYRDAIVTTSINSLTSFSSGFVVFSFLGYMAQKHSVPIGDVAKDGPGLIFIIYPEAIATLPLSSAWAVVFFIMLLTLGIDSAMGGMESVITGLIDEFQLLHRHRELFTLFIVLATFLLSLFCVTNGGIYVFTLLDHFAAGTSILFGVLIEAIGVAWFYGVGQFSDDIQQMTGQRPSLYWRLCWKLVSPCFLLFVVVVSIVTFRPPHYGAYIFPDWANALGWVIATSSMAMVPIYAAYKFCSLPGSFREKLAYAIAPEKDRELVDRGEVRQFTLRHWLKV

[10] = target: T2, Angiotensin-converting enzyme (Oryctolagus cuniculus, UniProt P12822); assay: biochemical; type: tissue-based, Lung;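 further: enzymatic inhibition of angiotensin-converting enzyme measured with FAPGG as the substrate; in other assays of this panel Not Active means under 50% inhibition at 10 µM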
T2 sequence (P12822 whole entry): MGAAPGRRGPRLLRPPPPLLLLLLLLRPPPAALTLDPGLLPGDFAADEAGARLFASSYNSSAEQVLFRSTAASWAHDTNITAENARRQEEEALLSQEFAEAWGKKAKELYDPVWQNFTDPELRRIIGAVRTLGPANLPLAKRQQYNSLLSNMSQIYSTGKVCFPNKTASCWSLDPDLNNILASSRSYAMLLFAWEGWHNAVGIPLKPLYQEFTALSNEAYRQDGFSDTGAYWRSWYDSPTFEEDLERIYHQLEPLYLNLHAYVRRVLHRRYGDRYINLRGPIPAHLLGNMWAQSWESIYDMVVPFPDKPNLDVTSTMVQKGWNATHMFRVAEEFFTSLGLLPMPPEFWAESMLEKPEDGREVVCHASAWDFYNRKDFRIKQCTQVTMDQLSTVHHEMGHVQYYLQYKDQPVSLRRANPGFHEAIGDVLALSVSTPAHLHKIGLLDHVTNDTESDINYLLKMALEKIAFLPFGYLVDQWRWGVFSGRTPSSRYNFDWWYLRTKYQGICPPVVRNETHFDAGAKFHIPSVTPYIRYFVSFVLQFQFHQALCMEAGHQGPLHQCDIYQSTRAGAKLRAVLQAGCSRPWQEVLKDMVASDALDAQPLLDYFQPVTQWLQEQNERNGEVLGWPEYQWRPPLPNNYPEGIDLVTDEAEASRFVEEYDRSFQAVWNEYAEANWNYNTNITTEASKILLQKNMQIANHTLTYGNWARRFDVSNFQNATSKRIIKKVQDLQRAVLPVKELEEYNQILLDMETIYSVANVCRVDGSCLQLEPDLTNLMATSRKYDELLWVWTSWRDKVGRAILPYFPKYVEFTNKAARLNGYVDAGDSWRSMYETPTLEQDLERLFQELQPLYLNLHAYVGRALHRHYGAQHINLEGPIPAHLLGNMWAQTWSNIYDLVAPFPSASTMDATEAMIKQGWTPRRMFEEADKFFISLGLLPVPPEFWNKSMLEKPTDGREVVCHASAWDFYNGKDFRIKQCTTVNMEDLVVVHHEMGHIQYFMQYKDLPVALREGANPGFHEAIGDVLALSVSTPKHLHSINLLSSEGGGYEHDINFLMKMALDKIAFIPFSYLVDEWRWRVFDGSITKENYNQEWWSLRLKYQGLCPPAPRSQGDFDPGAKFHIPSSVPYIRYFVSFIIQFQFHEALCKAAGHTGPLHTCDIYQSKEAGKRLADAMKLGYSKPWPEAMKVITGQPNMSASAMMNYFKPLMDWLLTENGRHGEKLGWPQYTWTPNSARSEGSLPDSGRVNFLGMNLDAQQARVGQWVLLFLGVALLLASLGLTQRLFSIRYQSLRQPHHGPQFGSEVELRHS

[11] = target: T3, Cysteinyl leukotriene receptor 1 (Homo sapiens, UniProt Q9Y271); type: cell membranes, CHO-K1, Membrane; conditions: cho-k1; further: in other assays of this panel Not Active means under 50% inhibition at 10 µM
T3 sequence (Q9Y271 whole entry): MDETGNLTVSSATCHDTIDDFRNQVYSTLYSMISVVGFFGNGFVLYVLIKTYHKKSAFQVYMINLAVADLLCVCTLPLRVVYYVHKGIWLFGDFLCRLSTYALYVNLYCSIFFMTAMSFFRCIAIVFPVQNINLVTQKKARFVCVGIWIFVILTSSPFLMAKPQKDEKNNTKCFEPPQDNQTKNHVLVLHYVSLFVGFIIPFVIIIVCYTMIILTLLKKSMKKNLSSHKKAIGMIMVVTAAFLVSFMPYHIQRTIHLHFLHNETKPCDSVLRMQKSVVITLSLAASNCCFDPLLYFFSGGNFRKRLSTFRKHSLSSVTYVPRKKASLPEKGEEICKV

Mu-type opioid receptor = Mu-type opioid receptor (Homo sapiens, UniProt P35372); assay: DRUGMATRIX: Opiate mu (OP3, MOP) radioligand binding (ligand: [3H] Diprenorphine); type: cell membranes, CHO-K1, Membrane; conditions: Not Active = under 50% inhibition at 10 µM
Chain of Mu-type opioid receptor (P35372 whole entry): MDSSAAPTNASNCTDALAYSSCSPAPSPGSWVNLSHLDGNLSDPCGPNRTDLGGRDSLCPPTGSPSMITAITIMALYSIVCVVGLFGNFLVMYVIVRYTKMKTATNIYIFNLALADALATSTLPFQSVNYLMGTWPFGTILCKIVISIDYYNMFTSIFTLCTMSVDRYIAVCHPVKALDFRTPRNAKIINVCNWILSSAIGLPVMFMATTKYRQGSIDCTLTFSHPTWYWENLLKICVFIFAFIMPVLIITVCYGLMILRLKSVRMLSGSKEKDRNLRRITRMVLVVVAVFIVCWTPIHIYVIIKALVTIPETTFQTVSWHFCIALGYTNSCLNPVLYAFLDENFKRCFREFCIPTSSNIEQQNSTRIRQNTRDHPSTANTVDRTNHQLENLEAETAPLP

Cytochrome P450 3A4 = Cytochrome P450 3A4 (Homo sapiens, UniProt P08684); conditions: bti-tn-5b1-4; further: in other assays of this panel Not Active means under 50% inhibition at 10 µM
Chain of Cytochrome P450 3A4 (P08684 whole entry): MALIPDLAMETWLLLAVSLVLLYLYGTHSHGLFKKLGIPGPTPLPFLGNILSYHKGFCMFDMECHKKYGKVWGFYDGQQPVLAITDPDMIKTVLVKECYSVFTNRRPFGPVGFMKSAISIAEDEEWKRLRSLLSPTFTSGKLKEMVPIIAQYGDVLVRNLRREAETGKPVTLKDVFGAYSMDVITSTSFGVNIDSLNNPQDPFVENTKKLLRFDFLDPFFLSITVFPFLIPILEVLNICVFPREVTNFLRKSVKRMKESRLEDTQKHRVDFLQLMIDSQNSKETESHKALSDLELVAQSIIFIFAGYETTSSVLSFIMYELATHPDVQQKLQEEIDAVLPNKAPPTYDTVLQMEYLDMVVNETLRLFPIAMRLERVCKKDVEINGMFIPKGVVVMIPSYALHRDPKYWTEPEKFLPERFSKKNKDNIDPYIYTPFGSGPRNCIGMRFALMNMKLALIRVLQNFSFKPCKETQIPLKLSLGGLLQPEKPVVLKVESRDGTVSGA

Row | Structure (SMILES) | IC50 [1] | Ki [1] | IC50 [2] | Ki [2] | IC50 [3] | Ki [3] | IC50 [4] | Ki [4] | IC50 [5] | Ki [5] | IC50 [6] | Ki [6] | IC50 [7] | IC50 [8] | Ki [8] | IC50 [9] | IC50 [10] | IC50 [11] | IC50 (Mu-type opioid receptor; cho-k1) | further results
1 | CCCSc1ccc2nc(NC(=O)OC)[nH]c2c1 [ALBENDAZOLE] | Not Active | Not Active | Not Active | Not Active | Not Active | Not Active | Not Active | Not Active | Not Active | Not Active | Not Active | Not Active | Not Active | Not Active | Not Active | Not Active | Not Active | Not Active | Not Active | –
2 | O=P1(NCCCl)OCCCN1CCCl (centres undefined) [IFOSFAMIDE] | Not Active | Not Active | Not Active | Not Active | Not Active | Not Active | Not Active | Not Active | Not Active | Not Active | Not Active | Not Active | Not Active | Not Active | Not Active | Not Active | Not Active | Not Active | Not Active | –
3 | COc1ccc([C@@H]2Sc3ccccc3N(CCN(C)C)C(=O)[C@@H]2OC(C)=O)cc1 [DILTIAZEM] | Not Active | Not Active | Not Active | Not Active | Not Active | Not Active | Not Active | Not Active | – | – | Not Active | Not Active | Not Active | Not Active | Not Active | Not Active | Not Active | Not Active | Not Active | –
4 | O=C(O)c1cn(C2CC2)c2cc(N3CCNCC3)c(F)cc2c1=O [CIPROFLOXACIN] | Not Active | Not Active | Not Active | Not Active | Not Active | Not Active | Not Active | Not Active | – | – | Not Active | Not Active | Not Active | Not Active | Not Active | Not Active | Not Active | Not Active | Not Active | –
5 | O=C1OCCN1/N=C/c1ccc([N+](=O)[O-])o1 [FURAZOLIDONE] | Not Active | Not Active | Not Active | Not Active | Not Active | Not Active | Not Active | Not Active | – | – | Not Active | Not Active | Not Active | Not Active | Not Active | Not Active | Not Active | Not Active | Not Active | –
6 | CC(C)NC[C@H](O)COc1cccc2[nH]ccc12 | Not Active | Not Active | Not Active | Not Active | Not Active | Not Active | Not Active | Not Active | Not Active | Not Active | Not Active | Not Active | Not Active | Not Active | Not Active | Not Active | Not Active | Not Active | Not Active | –
7 | Oc1c(Cl)cc(Cl)cc1Sc1cc(Cl)cc(Cl)c1O [BITHIONOL] | Not Active | Not Active | Not Active | Not Active | Not Active | Not Active | Not Active | Not Active | Not Active | Not Active | Not Active | Not Active | Not Active | Not Active | Not Active | – | Not Active | Not Active | – | IC50 (Cytochrome P450 3A4): Not Active; Ki (Cytochrome P450 3A4): Not Active; Ki (Mu-type opioid receptor): 2.24 µM; IC50 (Mu-type opioid receptor; read-out: IC50): 5.51 µM
8 | Cc1ccccc1N1CCN(CCc2nnc3n2CCCC3)CC1 [DAPIPRAZOLE] | Not Active | Not Active | Not Active | Not Active | Not Active | Not Active | Not Active | Not Active | Not Active | Not Active | Not Active | Not Active | – | Not Active | Not Active | Not Active | Not Active | Not Active | Not Active | IC50 (Cytochrome P450 3A4): Not Active; Ki (Cytochrome P450 3A4): Not Active
